Where two headings read alike, the source gives them in different places.
Legend:
Assay type in all cases: cell-based
hTLR7 = biological target: T1, hTLR7 (Homo sapiens, UniProt Q9NYK1); test: Reporter Gene Assay (RGA), HEK-Blue hTLR7 reporter cells, SEAP readout; conditions: overnight incubation, SEAP absorbance 620 nm
T1 construct: host or cells: HEK-Blue hTLR7 reporter cells (HEK293-derived, own knowledge)
T1 sequence (Q9NYK1 27-1049): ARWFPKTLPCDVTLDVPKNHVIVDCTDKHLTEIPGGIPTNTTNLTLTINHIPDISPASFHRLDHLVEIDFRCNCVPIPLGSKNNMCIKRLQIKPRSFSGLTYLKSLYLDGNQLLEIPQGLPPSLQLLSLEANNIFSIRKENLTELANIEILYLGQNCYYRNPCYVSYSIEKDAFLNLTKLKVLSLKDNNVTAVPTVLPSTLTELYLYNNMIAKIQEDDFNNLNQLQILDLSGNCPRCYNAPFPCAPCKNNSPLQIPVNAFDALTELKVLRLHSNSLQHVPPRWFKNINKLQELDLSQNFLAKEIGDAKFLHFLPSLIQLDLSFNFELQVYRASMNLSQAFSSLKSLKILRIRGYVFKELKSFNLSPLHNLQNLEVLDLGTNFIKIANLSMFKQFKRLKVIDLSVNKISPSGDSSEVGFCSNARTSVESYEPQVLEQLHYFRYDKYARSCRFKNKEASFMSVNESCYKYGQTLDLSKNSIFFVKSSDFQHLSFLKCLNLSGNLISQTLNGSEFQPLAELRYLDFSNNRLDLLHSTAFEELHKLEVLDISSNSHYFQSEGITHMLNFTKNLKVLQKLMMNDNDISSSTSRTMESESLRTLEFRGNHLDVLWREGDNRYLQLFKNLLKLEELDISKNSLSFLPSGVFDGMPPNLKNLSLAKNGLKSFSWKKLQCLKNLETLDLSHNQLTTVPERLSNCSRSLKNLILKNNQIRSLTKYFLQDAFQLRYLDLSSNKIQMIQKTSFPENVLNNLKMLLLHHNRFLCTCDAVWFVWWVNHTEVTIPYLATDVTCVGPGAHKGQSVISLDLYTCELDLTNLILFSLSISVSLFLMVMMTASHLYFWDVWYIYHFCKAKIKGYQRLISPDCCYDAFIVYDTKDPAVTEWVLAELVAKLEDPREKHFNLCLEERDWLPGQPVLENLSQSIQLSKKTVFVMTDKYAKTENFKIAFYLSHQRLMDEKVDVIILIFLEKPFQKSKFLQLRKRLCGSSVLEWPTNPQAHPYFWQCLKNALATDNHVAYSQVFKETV
Procedure: (§1) 1.5×10^4 HEK-Blue™ hTLR7 (Invivogen, San Diego, CA) or HEK-Blue™ mTLR7 (Invivogen, San Diego, CA) reporter cells were treated with a titration series of test compound (4-fold titration from […], 11 points). Compounds were initially diluted to 1 mM in DMSO and subsequently serial-diluted in assay media (HEK-Blue™ Detection; Invivogen, San Diego, CA). Cells with test compound were incubated overnight at 37° C.+5% CO2, and the amount of secreted embryonic alkaline phosphatase (SEAP) was determined by measuring absorbance (620 nm) using a Synergy™ H1 microplate reader.
(§2) Each assay included a positive control compound (referred to herein as “benchmark,” see, e.g., TABLE 3 below, and taken from International Patent Publication No. WO2017/072662, structure shown below) and a negative control (growth medium). […] The structure of the benchmark compound from International Patent Publication No. WO 2017/072662 is as follows: […]

mTLR7 = biological target: T2, mTLR7 (Mus musculus, UniProt P58681); test: Reporter Gene Assay (RGA), HEK-Blue mTLR7 reporter cells, SEAP readout; conditions: overnight incubation, SEAP absorbance 620 nm
T2 construct: host or cells: HEK-Blue mTLR7 reporter cells (HEK293-derived, own knowledge)
T2 sequence (P58681 27-1050): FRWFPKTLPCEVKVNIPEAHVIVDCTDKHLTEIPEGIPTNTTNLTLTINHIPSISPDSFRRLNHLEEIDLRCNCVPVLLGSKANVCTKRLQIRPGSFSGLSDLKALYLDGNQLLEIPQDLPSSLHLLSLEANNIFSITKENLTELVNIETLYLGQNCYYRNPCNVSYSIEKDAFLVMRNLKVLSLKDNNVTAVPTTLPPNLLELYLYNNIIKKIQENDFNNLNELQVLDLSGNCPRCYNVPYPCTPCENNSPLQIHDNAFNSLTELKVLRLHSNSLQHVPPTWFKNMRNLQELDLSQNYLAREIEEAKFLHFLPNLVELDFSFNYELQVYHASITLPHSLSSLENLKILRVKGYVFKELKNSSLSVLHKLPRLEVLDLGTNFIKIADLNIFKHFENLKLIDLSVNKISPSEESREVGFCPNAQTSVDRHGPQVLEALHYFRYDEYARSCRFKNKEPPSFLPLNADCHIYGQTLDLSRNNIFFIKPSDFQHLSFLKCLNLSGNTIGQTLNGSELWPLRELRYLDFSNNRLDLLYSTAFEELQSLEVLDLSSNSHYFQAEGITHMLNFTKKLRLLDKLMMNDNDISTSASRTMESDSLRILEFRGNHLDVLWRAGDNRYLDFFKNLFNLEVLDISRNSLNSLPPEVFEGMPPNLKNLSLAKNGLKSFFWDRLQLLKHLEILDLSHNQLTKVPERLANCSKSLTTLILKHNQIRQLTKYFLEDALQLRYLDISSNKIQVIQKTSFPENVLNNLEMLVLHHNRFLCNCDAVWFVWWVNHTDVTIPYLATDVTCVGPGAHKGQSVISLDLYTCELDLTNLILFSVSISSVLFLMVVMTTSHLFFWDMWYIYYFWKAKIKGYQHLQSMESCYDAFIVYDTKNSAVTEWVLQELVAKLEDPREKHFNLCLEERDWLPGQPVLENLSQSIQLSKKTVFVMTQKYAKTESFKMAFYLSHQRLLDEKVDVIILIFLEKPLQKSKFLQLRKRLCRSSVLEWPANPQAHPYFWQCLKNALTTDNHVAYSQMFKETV
Procedure: as §1, §2

[1] = test system: Human peripheral blood mononuclear cells (PBMCs); test: Human PBMC Assay, cytokine release (HTRF); conditions: PBMC, 24 hours
From the text: Human peripheral blood mononuclear cells (PBMCs) were isolated from fresh Leukopak using magnetic separation. Briefly, erythrocytes and granulocytes were magnetically labeled with Erythrocyte Depletion MicroBeads (Miltenyi Biotec) and Granulocyte Depletion MicroBeads (Miltenyi Biotec), respectively. The cell suspension was loaded onto a Multi-24 Column Block (Miltenyi Biotec) and placed in the magnetic field of a MultiMACS Cell24 Separator Plus (Miltenyi Biotec). The unlabelled PBMCs were collected in the run through. PBMCs were resuspended in CryoStor® CS10 ([…]) and frozen. On the day before the assay, PBMCs were thawed in warm assay buffer (RPMI+10% FBS) and resuspended in assay buffer+10 ng/ml hIL3 (R&D Systems). Cells were rested at 37° C.+5% CO2 overnight. The following day, cells were spun down and resuspended in fresh assay buffer. 300,000 cells were added to each well of plates containing test compound. For test compound preparation, each compound was initially diluted to 1 mM in DMSO and further diluted in assay buffer. A 4-fold 11-point titration starting from 15 μM was performed. Cells were incubated with test compound at 37° C.+5% CO2 for 24 hours before supernatant was harvested. Human interleukin 6 (hIL6), human tumor necrosis factor alpha (hTNFα), and human interferon alpha (hIFNα) were quantified in the supernatant using homogeneous time resolved fluorescence (Cisbio).
as §2

Mouse splenocytes = test: Mouse Splenocyte Assay, cytokine release (HTRF); conditions: Splenocyte, 24 hours, mIL6 in supernatant, read-out: Splenocyte IL6 EC50
Procedure: Mouse splenocytes were isolated from fresh mouse spleens. Briefly, spleens were harvested from female balb/c nude mice and transferred to a 70 μm cell strainer. The cell strainer was subsequently placed in a 6-well suspension culture plate containing 5 mL media (RPMI+10% FBS). The spleens were crushed against the cell strainer using the flat end of a 10 mL syringe plunger and the cell strainer was washed with 5 mL media. The cell strainer was discarded, and the cell suspension was washed in PBS. Red blood cells were removed using PharmaLyse (BD). The cell suspension was washed in media, resuspended in CryoStor® CS10 ([…]) and frozen. On assay day, mouse splenocytes were thawed in warm assay buffer (RPMI+10% FBS). Cells were spun down and resuspended in fresh assay buffer. 100,000 cells were added to each well of plates containing test compound. For test compound preparation, each compound was initially diluted to 1 mM in DMSO and further diluted in assay buffer. A 4-fold 11-point titration starting from 15 μM was performed. Cells were incubated with test compound at 37° C.+5% CO2 for 24 hours before supernatant was harvested. Murine IL6 (mIL6) and murine TNFα (mTNFα) were quantified in the supernatant using homogeneous time resolved fluorescence (Cisbio).
as §2

[2] = hIFNα in supernatant, EC50 values approximated and divided into groups, read-out: PBMC IFNa EC50
[3] = hIL6 in supernatant, read-out: PBMC IL6 EC50

EC50 (hTLR7) [nM]	EC50 (mTLR7) [nM]	EC50 (Mouse splenocytes) [nM]	Compound	EC50 [1, 2] [nM]	EC50 [1, 3] [nM]
13	0.3	33.3	CCOc1nc(N)c2nc(O)n(Cc3ccc(CNCc4ccccc4)cc3OC)c2n1 [Compound 107, 6-amino-9-(4-((benzylamino)methyl)-2-methoxybenzyl)-2-ethoxy-9H-purin-8-ol]	0.1 to 1	2720
6	5	71.9	CCOc1nc(N)c2nc(O)n(Cc3ccc(CNC4CCC4)cc3OC)c2n1 [Compound 108, 6-amino-9-(4-((cyclobutylamino)methyl)-2-methoxybenzyl)-2-ethoxy-9H-purin-8-ol]	< 0.1	564
56	13.1	166	CCOc1nc(N)c2nc(O)n(Cc3ccc(CNC4CC(F)(F)C4)cc3OC)c2n1 [Compound 109, 6-amino-9-(4-(((3,3-difluorocyclobutyl)amino)methyl)-2-methoxybenzyl)-2-ethoxy-9H-purin-8-ol]	1 to 10	456
112	184	≥ 1000	CCOc1nc(N)c2nc(O)n(Cc3ccc(CN4CCC(N)CC4)cc3OC)c2n1 [Compound 110, 6-amino-9-(4-((4-aminopiperidin-1-yl)methyl)-2-methoxybenzyl)-2-ethoxy-9H-purin-8-ol]	1 to 10	937
102	86.9	20.8	CCOc1nc(N)c2nc(O)n(Cc3ccc(CNCCN)cc3OC)c2n1 [Compound 111, 6-amino-9-(4-(((2-aminoethyl)amino)methyl)-2-methoxybenzyl)-2-ethoxy-9H-purin-8-ol]	1 to 10	531
187	662	1180	CCOc1nc(N)c2nc(O)n(Cc3ccc(CN4CCN(CCNC(=O)CC(SC[C@@H](N)C(=O)O)C(=O)O)CC4)cc3OC)c2n1 (stereo partly drawn) [Compound 113, 2-(((S)-2-amino-2-carboxyethyl)thio)-4-((2-(4-(4-((6-amino-2-ethoxy-8-hydroxy-9H-purin-9-yl)methyl)-3-methoxybenzyl)piperazin-1-yl)ethyl)amino)-4-oxobutanoic Acid]	> 10	1360
261	1520	901	CCOc1nc(N)c2nc(O)n(Cc3ccc(CNCCCC[C@H](N)C(=O)O)cc3OC)c2n1 [Compound 114, N^6-(4-((6-amino-2-ethoxy-8-hydroxy-9H-purin-9-yl)methyl)-3-methoxybenzyl)-L-lysine]	> 10	1750
277	1600	3240	CCOc1nc(N)c2nc(O)n(Cc3ccc(CNCCCCCC(=O)O)cc3OC)c2n1 [Compound 115, 6-((4-((6-amino-2-ethoxy-8-hydroxy-9H-purin-9-yl)methyl)-3-methoxybenzyl)-amino)hexanoic Acid]	> 10	2810
184	1020	2180	CCOc1nc(N)c2nc(O)n(Cc3ccc(CNCCC(=O)N[C@@H](Cc4c[nH]cn4)C(=O)O)cc3OC)c2n1 [Compound 116, (3-((4-((6-amino-2-ethoxy-8-hydroxy-9H-purin-9-yl)methyl)-3-methoxybenzyl)-amino)-propanoyl)-L-histidine]	> 10	3080
2.04	11.4	639	CCOc1nc(N)c2nc(O)n(Cc3ccc(CN[C@H](CO)Cc4ccccc4)cc3OC)c2n1 [Compound 118, (S)-6-amino-2-ethoxy-9-(4-(((1-hydroxy-3-phenylpropan-2-yl)amino)methyl)-2-methoxybenzyl)-9H-purin-8-ol]	0.1 to 1	1400
259	1960	≥ 1000	CCOc1nc(N)c2nc(O)n(Cc3ccc(CN[C@@H](CO)C(=O)O)cc3OC)c2n1 [Compound 119, (4-((6-amino-2-ethoxy-8-hydroxy-9H-purin-9-yl)methyl)-3-methoxybenzyl)-L-serine]	> 10	3910

— US20250170266A1 (ZYMEWORKS BC INC., priority 2022, published 2025)
